Measurements: patent US5583227A, “Antiulcer compounds having a substituted alkynyl or quinoxaline nucleus and methods of making thereof” (Mochida Pharmaceutical Co. Ltd., priority 1994, dated 1996)
pIC50: −log10 of the molar value. Like-named read-outs stand apart in the source and are kept apart here.

Tests used:
[1] = target: T1, H^+,K^+ adenosine triphosphatase (Sus scrofa, UniProt P19156); assay: H+,K+ adenosine triphosphatase inhibition (proton pump inhibition); type: biochemical, hog; conditions: for IC50: H+,K+ ATPase fraction from hog stomach microsomes, ATP substrate, released inorganic phosphorus, read-out: Enzyme inhibition IC50 value (converted)
T1 construct: hog stomach was homogenized and subjected to ultracentrifugation to obtain a microsome fraction; from tissue; host or cells: hog stomach, microsome fraction (discontinuous Ficoll gradient)
T1 sequence (P19156 2-1034 limits assumed): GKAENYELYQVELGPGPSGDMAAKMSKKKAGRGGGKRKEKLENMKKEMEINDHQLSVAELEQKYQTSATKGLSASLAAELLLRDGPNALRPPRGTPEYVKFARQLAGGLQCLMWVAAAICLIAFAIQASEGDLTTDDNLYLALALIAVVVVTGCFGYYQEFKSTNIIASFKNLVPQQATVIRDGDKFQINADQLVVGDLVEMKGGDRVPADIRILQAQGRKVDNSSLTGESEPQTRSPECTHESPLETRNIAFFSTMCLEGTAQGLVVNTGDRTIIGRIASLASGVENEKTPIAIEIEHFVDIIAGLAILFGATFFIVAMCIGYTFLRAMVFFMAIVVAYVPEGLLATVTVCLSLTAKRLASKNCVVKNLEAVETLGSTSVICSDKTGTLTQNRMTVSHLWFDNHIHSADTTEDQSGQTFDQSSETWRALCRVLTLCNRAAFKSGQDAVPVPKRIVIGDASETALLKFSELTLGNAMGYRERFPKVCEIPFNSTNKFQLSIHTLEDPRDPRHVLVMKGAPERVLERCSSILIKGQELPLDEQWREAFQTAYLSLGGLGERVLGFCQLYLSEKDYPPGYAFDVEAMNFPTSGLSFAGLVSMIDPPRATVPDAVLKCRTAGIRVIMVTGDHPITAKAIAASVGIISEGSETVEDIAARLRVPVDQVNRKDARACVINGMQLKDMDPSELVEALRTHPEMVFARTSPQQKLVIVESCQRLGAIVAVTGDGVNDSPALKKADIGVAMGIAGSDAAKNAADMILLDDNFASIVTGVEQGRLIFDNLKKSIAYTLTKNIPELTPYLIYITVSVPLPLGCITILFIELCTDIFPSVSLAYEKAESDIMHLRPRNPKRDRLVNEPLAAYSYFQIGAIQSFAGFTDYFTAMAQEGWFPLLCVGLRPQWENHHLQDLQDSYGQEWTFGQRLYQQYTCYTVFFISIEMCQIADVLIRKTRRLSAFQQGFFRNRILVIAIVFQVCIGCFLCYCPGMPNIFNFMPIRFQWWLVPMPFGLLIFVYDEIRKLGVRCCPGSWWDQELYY
T1 sequence (P18434 whole entry partner): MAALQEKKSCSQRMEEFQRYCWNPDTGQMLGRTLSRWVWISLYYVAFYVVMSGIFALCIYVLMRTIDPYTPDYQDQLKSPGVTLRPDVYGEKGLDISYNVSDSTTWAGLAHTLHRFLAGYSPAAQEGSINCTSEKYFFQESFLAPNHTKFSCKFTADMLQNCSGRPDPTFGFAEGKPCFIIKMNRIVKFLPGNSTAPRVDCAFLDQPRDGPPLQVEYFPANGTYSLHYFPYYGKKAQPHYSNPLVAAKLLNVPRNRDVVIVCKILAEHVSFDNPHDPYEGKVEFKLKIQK
Description: Proton pump inhibition was evaluated by the H^+,K^+ adenosine triphosphatase (to be referred to as "H^+,K^+ ATPase" hereinafter)inhibition.
That is, hog stomach was homogenized and subjected to ultracentrifugation to obtain a microsome fraction, and the microsomes were subjected to discontinuous density gradient ultracentrifugation using 0 and 9% Ficoll solutions to obtain a fraction containing H^+,K^+ ATPase. The H^+,K^+ ATPase activity was determined by measuring the released inorganic phosphorus using ATP as the substrate and an inorganic phosphorus measuring reagent PiSET(IATRON) manufactured by IATRON.

[2] = system: gastric acid secretion; assay: Gastric acid secretion inhibition activity (pylorus-ligated, histamine-stimulated rats); type: in vivo, Sprague-Dawley (SD) male rats; conditions: Rattus norvegicus; 30 mg/kg oral; pylorus ligated 3 hours later; histamine hydrochloride 30 mg/kg s.c.; total acidity over 3 hours; read-out: Acid secretion inhibition rate (%)
Description: (Test Example 2) Gastric acid secretion inhibition activity
Basically according to the method of Satoh et (Journal of Pharmacology and Experimental Therapeutics, vol.248, pp.806-815, 1988), each of the compounds shown in Examples was orally administered at a dose of 30 mg/kg to Sprague-Dawley (SD) male rats which have been subjected to fasting of 24 hours (free drinking).
After 3 hours of the compound administration, the pylorus of each rat was ligated under urethane anesthesia, and 30 mg of histamine hydrochloride per Kg was administered to the rat by subcutaneous injection. After 3 hours of the ligation, the gastric juice was collected to measure its volume and calculate total acidity (mEqH^+ /3 hours) by sodium hydroxide titration. The inhibition rate (%) was calculated by the following formula in which A represents the total gastric juice acidity of control group rat and B represents the total gastric juice acidity of test compound-administered group rat. [formula]

[3] = system: Stress ulcer; assay: Stress ulcer; type: in vivo, Wistar male rats; conditions: Rattus norvegicus; oral, 7 hours stress loading in water bath at 23° C.; read-out: Antiulcer activity, Stress ulcer, ED50 value
Description: (Test Example 3) Stress ulcer
Basically according to the method of Takagi et al. (Japanese Journal of Pharmacology (to be referred to as "Japan. J. Pharmacol." hereinafter), vol.18, pp.9-18, each of the compounds shown in Examples was orally administered to Wistar male rats which have been subjected to fasting of 24 hours (free drinking). Each rat was transferred into a stress cage 30 minutes thereafter and subjected to stress loading by suspending the cage in a water bath controlled at 23° C. to such a depth that the rat was soaked up to its breast.
After 7 hours of the stress loading, the rat was recovered from the water bath to excise the stomach. The length (mm) of each ulcer developed in the stomach was measured under a stereoscopic microscope, and the total length of ulcers per one animal was used as an ulcer index. The dose of each test compound required to inhibit 50% of the ulcer index of the control group was calculated (ED50). The results are shown in Table 3, together with the results of the following pylorus ligation ulcer test.

[4] = system: Pylorus ligation ulcer; assay: Pylorus ligation ulcer; type: in vivo, Wistar male rats; conditions: Rattus norvegicus; oral, 14 hours after pylorus ligation; read-out: Antiulcer activity, Pylorus ligation ulcer, ED50 value
Description: (Test Example 4) Pylorus ligation ulcer
Basically according to the method of Shay et al. (Gastroenterology, vol.5, pp.43-61, 1945), each of the compounds shown in Examples was orally administered to Wistar male rats which have been subjected to fasting of 48 hours (free drinking). After 30 minutes of the compound administration,the pylorus of each rat was ligated.
After 14 hours of standing, the stomach was excised. The length and width of each ulcer developed in the fore-stomach part were measured under a stereoscopic microscope to calculate the ulcer area (length×width). In accordance with the method of Takagi et al. (Japan. J. Pharmacol., vol.24, pp.357-361, 1974), ulcer index was calculated based on the total ulcer area per animal. The dose of each test compound required to inhibit 50% of the ulcer index of the control group was calculated (ED50).

[5] = Acute toxicity test; conditions: mouse, in vivo; oral, mice, one week observation
From the text: (Test Example 6) Acute toxicity test
Each of the compounds shown in Examples was orally administered to three ICR male mice per group.

COC(C)C#Cc1nc(C#N)c(C#N)nc1C#CC(C)OC (stereo not shown) [Example 73]
IC50 [1]: 1.7 µM

COC1(C#Cc2nc3ccccc3nc2C#CC2(OC)CCCC2)CCCC1 [Example 26, 2,3-bis(2-(1-methoxycyclopentyl)ethynyl)quinoxaline]
IC50 [1]: 32 µM

CCCCC#Cc1nc(C#N)c(C#N)nc1C(=O)OCC [Example 101]
pIC50 [1]: 5.27

COC(=O)c1nc(C#CC(OC)OC)c(C#CC(OC)OC)nc1C(=O)OC [Example 59]
IC50 [1]: 8.92 µM
inhibition in vivo at 30 mg/kg [2]: 79%
ED50 [3]: 18 mg/kg
ED50 [4]: 21 mg/kg
LD50 at 168 h [5]: > 1000 mg/kg

COCCCC#Cc1nc(C(=O)OC)c(C(=O)OC)nc1C#CCCCOC [Example 2, 5,6-bis(5-methoxy-1-pentynyl)pyrazine-2,3-dicarboxylic acid dimethyl ester]
inhibition in vivo at 30 mg/kg [2]: 66%
ED50 [3]: 60 mg/kg
ED50 [4]: 66 mg/kg
LD50 at 168 h [5]: > 1000 mg/kg

CCOCCO[C@H](C#Cc1nc2ccccc2nc1C#C[C@H](CC)OCCOCC)CC [Example 22, 2,3-bis((S)-3-(2-ethoxyethoxy)-1-pentynyl)quinoxaline]
IC50 [1]: 29.6 µM

COCCOCC#Cc1nc2ccc(OC)cc2nc1C#CCOCCOC [Example 133]
IC50 [1]: 20.8 µM
inhibition in vivo at 30 mg/kg [2]: 44%

CCC(C#Cc1cnc2ccccc2n1)OCCOC (stereo not shown) [Example 127]
IC50 [1]: 326 µM

CCOCCOC(C#Cc1nc2ccc(CO)cc2nc1C#CC(CC)OCCOCC)CC (stereo not shown) [Example 151]
IC50 [1]: 18.6 µM

CCCC#Cc1nc(C#N)c(C#N)nc1C#CCOC [Example 81]
pIC50 [1]: 5.82
inhibition in vivo at 30 mg/kg [2]: 61%
ED50 [3]: 42 mg/kg
ED50 [4]: 5.2 mg/kg
LD50 at 168 h [5]: > 1000 mg/kg

CCC(C#Cc1nc2cccc(C)c2nc1C#CC(CC)OCCOC)OCCOC (stereo not shown) [Example 144]
IC50 [1]: 28.3 µM

CCOC(C)C#Cc1nc2ccccc2nc1Cl (stereo not shown) [Example 29, 2-chloro-3-(3-ethoxy-1-butynyl)quinoxaline]
IC50 [1]: 215 µM

CCOC(C)C#Cc1nc2ccc(C(C)=O)cc2nc1C#CC(C)OCC (stereo not shown) [Example 33, 6-acetyl-2,3-bis(3-ethoxy-1-butynyl)quinoxaline]
IC50 [1]: 9.88 µM
inhibition in vivo at 30 mg/kg [2]: 23%

CCCCC#Cc1nc(C#N)c(C#N)nc1C(F)(F)F [Example 102]
pIC50 [1]: 5.40

CC[C@@H](C#Cc1nc2ccccc2nc1C#C[C@@H](CC)OCCOC)OCCOC [Example 21, 2-((R)-3-(2-methoxyethoxy)-1-pentynyl)-3-((S)-3-(2-methoxyethoxy)-1-pentynyl)quinoxaline]
IC50 [1]: 102 µM

COC(=O)c1nc(C#CC(C)OC)c(C#CC(C)OC)nc1C(=O)OC (stereo not shown) [Example 53]
IC50 [1]: 5.27 µM

CCOCCOC(C)C#Cc1nc2ccccc2nc1C#CC(C)OCCOCC (stereo not shown) [Example 113]
LD50 at 168 h [5]: > 1000 mg/kg

CCCC#Cc1nc(C#N)c(C#N)nc1C#CCCOC [Example 77]
IC50 [1]: 1.44 µM
inhibition in vivo at 30 mg/kg [2]: 55%

CCC#Cc1nc(C(=O)OC)c(C(=O)OC)nc1C#CC(C)OC (stereo not shown) [Example 62]
IC50 [1]: 5.15 µM
inhibition in vivo at 30 mg/kg [2]: 69%

CCCOCC#Cc1nc(C(=O)OC)c(C(=O)OC)nc1C#CCOCCC [Example 1, 5,6-bis(3-n-propoxy-1-propynyl)pyrazine-2,3-dicarboxylic acid dimethyl ester]
IC50 [1]: 87.5 µM
inhibition in vivo at 30 mg/kg [2]: 50%
ED50 [4]: 28 mg/kg
LD50 at 168 h [5]: > 1000 mg/kg

CCOC(C)C#Cc1nc2cc(OC)c(OC)cc2nc1C#CC(C)OCC (stereo not shown) [Example 145]
IC50 [1]: 25.1 µM

COC(C)C#Cc1nc2ccccc2nc1C#CC(C)OC (stereo not shown) [Example 111]
IC50 [1]: 9.17 µM

CCOC(C)(C)C#Cc1nc2ccccc2nc1C#CC(C)(C)OCC [Example 13, 2,3-bis(3-ethoxy-3-methyl-1-butynyl)quinoxaline]
IC50 [1]: 31.4 µM

CC[C@H](C#Cc1nc2ccccc2nc1C#C[C@@H](CC)OCCOC)OCCOC [Example 19, 2,3-bis((R)-3-(2-methoxyethoxy)-1-pentynyl)quinoxaline]
inhibition in vivo at 30 mg/kg [2]: 28%

CCOCCO[C@H](C#Cc1nc2ccccc2nc1C#C[C@@H](CC)OCCOCC)CC [Example 25, 2-((R)-3-(2-ethoxyethoxy)-1-pentynyl)-3-((S)-3-(2-ethoxyethoxy)-1-pentynyl)quinoxaline]
IC50 [1]: 34.2 µM

CCCOCC#Cc1nc(C(=O)O)c(C(=O)O)nc1C#CCOCCC [Example 5, 5,6-bis(3-n-propoxy-1-propynyl)pyrazine-2,3-dicarboxylic acid]
inhibition in vivo at 30 mg/kg [2]: 61%

CCOC(C)C#Cc1nc2ccc(OC)cc2nc1C#CC(C)OCC (stereo not shown) [Example 129]
IC50 [1]: 25.3 µM

CCOC(C)C#Cc1nc2cccc(OC)c2nc1C#CC(C)OCC (stereo not shown) [Example 140]
IC50 [1]: 34 µM

CCOC(=O)c1nc(C#CCOC)c(C#CCOC)nc1C(=O)OCC [Example 69]
inhibition in vivo at 30 mg/kg [2]: 70%

CC[C@@H](C#Cc1nc2ccccc2nc1C#C[C@H](CC)OCCOC)OCCOC [Example 18, 2,3-bis((S)-3-(2-methoxyethoxy)-1-pentynyl)quinoxaline]
IC50 [1]: 124 µM

CSCCC#Cc1nc(C#N)c(C#N)nc1C#CCCSC [Example 95]
IC50 [1]: 0.613 µM

COCC#Cc1nc2ccccc2nc1C#CCOC [Example 107]
ED50 [3]: 29 mg/kg
ED50 [4]: 30 mg/kg

CCOCCO[C@@H](C#Cc1nc2ccccc2nc1C#C[C@@H](CC)OCCOCC)CC [Example 23, 2,3-bis((R)-3-(2-ethoxyethoxy)-1-pentynyl)quinoxaline]
IC50 [1]: 54.7 µM

CCOC(C#Cc1nc2ccccc2nc1C#CC(CC)OCC)CC (stereo not shown) [Example 115]
LD50 at 168 h [5]: > 1000 mg/kg

COCCOC(C)C#Cc1nc(C(=O)OC)c(C(=O)OC)nc1C#CC(C)OCCOC (stereo not shown) [Example 56]
IC50 [1]: 13.4 µM
inhibition in vivo at 30 mg/kg [2]: 80%
ED50 [3]: 12 mg/kg
ED50 [4]: 17 mg/kg

CCCCC#Cc1nc(C#N)c(C#N)nc1C#CCCCC [Example 89]
IC50 [1]: 0.344 µM

CCOCCOC(C)(C)C#Cc1nc2ccc(Cl)cc2nc1C#CC(C)(C)OCCOCC [Example 159, 6-chloro-2,3-bis(3-(2-ethoxyethoxy)-3-methyl-1-butynyl)quinoxaline]
IC50 [1]: 16.7 µM

CCOCC#Cc1nc2ccccc2nc1C#CCOCC [Example 108]
LD50 at 168 h [5]: > 1000 mg/kg

CCC(C#Cc1nc2ccccc2nc1C#CC(CC)OCCC(=O)OC)OCCC(=O)OC (stereo not shown) [Example 123]
IC50 [1]: 87.9 µM

COCCC#Cc1nc2ccccc2nc1C#CCCOC [Example 12, 2,3-bis(4-methoxy-1-butynyl)quinoxaline]
IC50 [1]: 279 µM
inhibition in vivo at 30 mg/kg [2]: 41%
ED50 [3]: 24 mg/kg
LD50 at 168 h [5]: > 1000 mg/kg

CCCOCCOC(C)(C)C#Cc1nc2ccccc2nc1C#CC(C)(C)OCCOCCC [Example 158, 2,3-bis(3-(2-n-propoxyethoxy)-3-methyl-1-butynyl)quinoxaline]
IC50 [1]: 17.1 µM

COCCOCC#Cc1nc2ccccc2nc1C(C)(C)C [Example 30, 2-t-butyl-3-(3-(2-methoxyethoxy)-1-propynyl)quinoxaline]
pIC50 [1]: 4.22
